Reference: ChEMBL document CHEMBL1201862, “PubChem BioAssay data set” (2004)
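Assay format: 96-well plates, 48-hour exposure. The concentration for 50% growth inhibition is given as GI50.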 Activity calls are given as the source filed them. Cut-off read from the data, not from the text of the source: active = GI50 up to about 1.1 µM and inactive = higher.

Tests used:
Assay in all cases: DTP human tumour cell line panel, 48 h
[1] = system: 786-0
[2] = system: A498
[3] = system: A549
[4] = system: ACHN
[5] = system: CCRF-CEM
[6] = system: COLO 205
[7] = system: DLD-1
[8] = system: DMS-114
[9] = system: EKVX
[10] = system: HCC 2998
[11] = system: HCT-116
[12] = system: HCT-15
[13] = system: HL-60
[14] = system: HOP-18
[15] = system: HOP-62
[16] = system: HOP-92
[17] = system: HT-29
[18] = system: IGROV-1
[19] = system: K562
[20] = system: KM-20L2
[21] = system: KM12
[22] = system: LOX IMVI
[23] = system: LXFL 529
[24] = system: M14
[25] = system: M19-MEL
[26] = system: MOLT-4
[27] = system: Malme-3M
[28] = system: NCI-H226
[29] = system: NCI-H23
[30] = system: NCI-H460
[31] = system: NCI-H522
[32] = system: OVCAR-3
[33] = system: OVCAR-4
[34] = system: OVCAR-5
[35] = system: OVCAR-8
[36] = system: RPMI-8226
[37] = system: RXF 393
[38] = system: RXF 631
[39] = system: SF-268
[40] = system: SF-295
[41] = system: SF-539
[42] = system: SK-MEL-28
[43] = system: SK-MEL-2
[44] = system: SK-MEL-5
[45] = system: SK-OV-3
[46] = system: SN12C
[47] = system: SNB-19
[48] = system: SNB-75
[49] = system: SNB-78
[50] = system: SR
[51] = system: SW-620
[52] = system: TK-10
[53] = system: U-251
[54] = system: UACC-257
[55] = system: UACC-62
[56] = system: UO-31
[57] = system: XF498
[58] = system: CAKI-1
[59] = system: DMS-273

COC(=O)CCC(NC(=S)N/N=C(\C)c1cnccn1)C(=O)OC (stereo unspecified) was tested, and the GI50 [1] was 58.6 µM (inactive), the GI50 [2] was > 100 µM (inactive) and the GI50 [3] was 58.7 µM (inactive). For the same compound, the GI50 [4] was 29.8 µM (inactive), the GI50 [5] was 16.8 µM (inactive) and the GI50 [6] was 34.4 µM (inactive). For the same compound, the GI50 [7] was 48 µM (inactive), the GI50 [8] was 22.1 µM (inactive) and the GI50 [9] was 40 µM (inactive). The GI50 [10] was 56.5 µM (inactive), the GI50 [11] was 33.9 µM (inactive) and the GI50 [12] was 44.5 µM. The GI50 [13] was 14.8 µM (inactive), the GI50 [14] was 56.1 µM (inactive) and the GI50 [15] was 36.2 µM (inactive). The GI50 [16] was > 100 µM (inactive), the GI50 [17] was 93.3 µM (inactive) and the GI50 [18] was 69.8 µM (inactive). For the same compound, the GI50 [19] was 22.9 µM (inactive), the GI50 [20] was 38.6 µM (inactive) and the GI50 [21] was 70.6 µM (inactive). The GI50 [22] was 31.6 µM (inactive), the GI50 [23] was 57.7 µM (inactive) and the GI50 [24] was 42.4 µM (inactive). For the same compound, the GI50 [25] was 39.5 µM (inactive), the GI50 [26] was 15.7 µM (inactive) and the GI50 [27] was 54.1 µM (inactive). The GI50 [28] was 44.5 µM (inactive), the GI50 [29] was 87.5 µM (inactive) and the GI50 [30] was 53 µM (inactive). The GI50 [31] was 27 µM (inactive), the GI50 [32] was 34.5 µM (inactive) and the GI50 [33] was 56.2 µM (inactive). For the same compound, the GI50 [34] was 21 µM (inactive), the GI50 [35] was 38.6 µM (inactive) and the GI50 [36] was 44.9 µM (inactive). For the same compound, the GI50 [37] was > 100 µM (inactive), the GI50 [38] was 73.5 µM (inactive) and the GI50 [39] was 35.4 µM (inactive). For the same compound, the GI50 [40] was 52.4 µM (inactive), the GI50 [41] was 62.5 µM (inactive) and the GI50 [42] was 55.8 µM (inactive). For the same compound, the GI50 [43] was 68.1 µM (inactive), the GI50 [44] was 34.2 µM (inactive) and the GI50 [45] was > 100 µM (inactive). The GI50 [46] was 86.7 µM (inactive), the GI50 [47] was > 100 µM (inactive) and the GI50 [48] was 85.3 µM (inactive). For the same compound, the GI50 [49] was > 100 µM (inactive), the GI50 [50] was 29.2 µM (inactive) and the GI50 [51] was 49.3 µM (inactive). The GI50 [52] was > 100 µM (inactive), the GI50 [53] was 52.4 µM (inactive) and the GI50 [54] was 33.8 µM (inactive). The GI50 [55] was 28.6 µM (inactive), the GI50 [56] was 49.1 µM (inactive) and the GI50 [57] was > 100 µM (inactive).
CCc1ccccc1N1C(=O)C(=O)C(c2nc3ccccc3s2)C(=O)C1=O was tested, and the GI50 [1] was > 100 µM (inactive), the GI50 [3] was > 100 µM (inactive) and the GI50 [4] was > 100 µM (inactive). The GI50 [58] was > 100 µM (inactive), the GI50 [5] was 37.6 µM (inactive) and the GI50 [7] was 43.2 µM (inactive). The GI50 [8] was 79.3 µM (inactive), the GI50 [9] was > 100 µM (inactive) and the GI50 [10] was > 100 µM (inactive). For the same compound, the GI50 [11] was 48.3 µM (inactive), the GI50 [12] was over 100 µM and the GI50 [13] was 40.3 µM (inactive). For the same compound, the GI50 [14] was > 100 µM (inactive), the GI50 [15] was > 100 µM (inactive) and the GI50 [16] was > 100 µM (inactive). The GI50 [17] was > 100 µM (inactive), the GI50 [18] was > 100 µM (inactive) and the GI50 [19] was 44.3 µM (inactive). The GI50 [20] was > 100 µM (inactive), the GI50 [21] was > 100 µM (inactive) and the GI50 [22] was > 100 µM (inactive). The GI50 [23] was 75.7 µM (inactive), the GI50 [24] was 59 µM (inactive) and the GI50 [25] was > 100 µM (inactive). The GI50 [26] was 42.2 µM (inactive), the GI50 [27] was > 100 µM (inactive) and the GI50 [28] was > 100 µM (inactive). For the same compound, the GI50 [29] was 66.2 µM (inactive), the GI50 [30] was > 100 µM (inactive) and the GI50 [31] was > 100 µM (inactive). The GI50 [32] was 80.4 µM (inactive), the GI50 [33] was 79.8 µM (inactive) and the GI50 [34] was > 100 µM (inactive). The GI50 [35] was 41.8 µM (inactive), the GI50 [36] was 72.4 µM (inactive) and the GI50 [37] was > 100 µM (inactive). The GI50 [38] was 44.3 µM (inactive), the GI50 [39] was > 100 µM (inactive) and the GI50 [40] was 83 µM (inactive). For the same compound, the GI50 [41] was > 100 µM (inactive), the GI50 [42] was > 100 µM (inactive) and the GI50 [43] was > 100 µM (inactive). For the same compound, the GI50 [44] was 92 µM (inactive), the GI50 [45] was > 100 µM (inactive) and the GI50 [46] was 63.4 µM (inactive). For the same compound, the GI50 [47] was > 100 µM (inactive), the GI50 [49] was > 100 µM (inactive) and the GI50 [50] was 55 µM (inactive). For the same compound, the GI50 [51] was 83.8 µM (inactive), the GI50 [52] was > 100 µM (inactive) and the GI50 [53] was 36.1 µM (inactive). The GI50 [54] was > 100 µM (inactive), the GI50 [55] was > 100 µM (inactive) and the GI50 [56] was > 100 µM (inactive). For the same compound, the GI50 [57] was > 100 µM (inactive).
With COc1ccc2c(c1O)C(=O)C(CCC(=O)O)CC2 (stereo unspecified) the GI50 [1] was > 100 µM (inactive), the GI50 [2] was > 100 µM (inactive) and the GI50 [3] was > 100 µM (inactive). The GI50 [4] was > 100 µM (inactive), the GI50 [58] was > 100 µM (inactive) and the GI50 [5] was > 100 µM (inactive). For the same compound, the GI50 [6] was > 100 µM (inactive), the GI50 [7] was > 100 µM (inactive) and the GI50 [8] was > 100 µM (inactive). The GI50 [59] was > 100 µM (inactive), the GI50 [9] was > 100 µM (inactive) and the GI50 [10] was > 100 µM (inactive). For the same compound, the GI50 [11] was > 100 µM (inactive), the GI50 [12] was over 100 µM and the GI50 [13] was > 100 µM (inactive). For the same compound, the GI50 [14] was > 100 µM (inactive), the GI50 [15] was > 100 µM (inactive) and the GI50 [16] was > 100 µM (inactive). The GI50 [17] was > 100 µM (inactive), the GI50 [18] was > 100 µM (inactive) and the GI50 [20] was > 100 µM (inactive). The GI50 [22] was > 100 µM (inactive), the GI50 [23] was > 100 µM (inactive) and the GI50 [24] was > 100 µM (inactive). The GI50 [25] was > 100 µM (inactive), the GI50 [26] was > 100 µM (inactive) and the GI50 [29] was > 100 µM (inactive). For the same compound, the GI50 [30] was > 100 µM (inactive), the GI50 [32] was > 100 µM (inactive) and the GI50 [33] was > 100 µM (inactive). For the same compound, the GI50 [35] was > 100 µM (inactive), the GI50 [36] was > 100 µM (inactive) and the GI50 [37] was > 100 µM (inactive). For the same compound, the GI50 [38] was > 100 µM (inactive), the GI50 [40] was 30.9 µM (inactive) and the GI50 [41] was > 100 µM (inactive). For the same compound, the GI50 [42] was > 100 µM (inactive), the GI50 [44] was > 100 µM (inactive) and the GI50 [45] was > 100 µM (inactive). For the same compound, the GI50 [46] was > 100 µM (inactive), the GI50 [47] was > 100 µM (inactive) and the GI50 [48] was > 100 µM (inactive). The GI50 [49] was > 100 µM (inactive), the GI50 [51] was > 100 µM (inactive) and the GI50 [52] was > 100 µM (inactive). For the same compound, the GI50 [53] was > 100 µM (inactive), the GI50 [54] was > 100 µM (inactive) and the GI50 [55] was > 100 µM (inactive). The GI50 [57] was > 100 µM (inactive).
